Results: patent publication US20220009920A1 (GB005, Inc., priority 2020, published 2022)

Columns and labels:
Assay in all cases: Large panel kinase profiling
Assay type in all cases: biochemical
Conditions in all cases: 1 μM test article, 1 mM ATP
[1] = molecular target: AKT3 (Homo sapiens, UniProt Q9Y243)
Method in brief: (§1)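 One compound concentration (1 μM) was screened against each kinase at 1 mM ATP using PhosphoSens CSox-Sensor detection, at 30° C., with fluorescence read every 1 min (Ex 360 nm/Em 485 nm).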

[2] = molecular target: T1, MST1R/RON (Homo sapiens, UniProt Q04912)
T1 construct: AssayQuant Technologies, Inc. (assay service)
Method in brief: as §1

[3] = molecular target: T2, CDK5/P35 (Homo sapiens, UniProt Q00535)
T2 construct: AssayQuant Technologies, Inc. (ran the panel)
Method in brief: as §1

[4] = molecular target: T3, EPHA3 (Homo sapiens, UniProt P29320)
T3 sequence (P29320 21-983): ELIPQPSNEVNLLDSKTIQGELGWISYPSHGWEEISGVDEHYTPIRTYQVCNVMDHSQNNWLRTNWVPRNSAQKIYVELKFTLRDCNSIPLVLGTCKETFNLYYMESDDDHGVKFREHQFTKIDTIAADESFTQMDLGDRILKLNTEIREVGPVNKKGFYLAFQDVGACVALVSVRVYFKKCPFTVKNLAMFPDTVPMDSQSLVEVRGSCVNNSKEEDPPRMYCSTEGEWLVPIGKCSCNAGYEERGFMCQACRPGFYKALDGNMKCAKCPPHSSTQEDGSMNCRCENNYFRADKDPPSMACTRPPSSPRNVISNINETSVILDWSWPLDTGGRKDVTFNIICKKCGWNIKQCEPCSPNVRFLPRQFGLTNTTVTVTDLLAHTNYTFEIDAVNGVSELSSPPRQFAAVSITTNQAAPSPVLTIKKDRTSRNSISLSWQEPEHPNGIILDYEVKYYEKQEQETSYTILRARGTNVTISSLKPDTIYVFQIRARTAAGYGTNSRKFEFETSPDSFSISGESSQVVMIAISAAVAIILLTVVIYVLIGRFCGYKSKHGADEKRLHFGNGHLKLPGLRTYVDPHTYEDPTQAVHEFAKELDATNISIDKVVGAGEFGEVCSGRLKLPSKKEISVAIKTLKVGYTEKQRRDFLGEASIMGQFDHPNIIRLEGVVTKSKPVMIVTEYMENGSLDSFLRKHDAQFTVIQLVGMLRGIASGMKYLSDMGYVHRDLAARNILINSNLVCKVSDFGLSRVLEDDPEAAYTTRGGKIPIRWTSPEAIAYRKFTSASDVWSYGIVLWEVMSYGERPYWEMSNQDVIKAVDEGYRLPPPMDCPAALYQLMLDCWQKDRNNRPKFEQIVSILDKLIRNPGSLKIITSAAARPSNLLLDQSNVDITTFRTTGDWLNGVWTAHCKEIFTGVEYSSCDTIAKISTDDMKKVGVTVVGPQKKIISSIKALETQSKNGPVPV
Method in brief: as §1

[5] = molecular target: T4, CHEK2/CHK2 (Homo sapiens, UniProt O96017)
T4 construct: AssayQuant Technologies, Inc. (ran the panel)
Method in brief: as §1

[6] = molecular target: T5, CLK1 (Homo sapiens, UniProt P49759)
T5 construct: AssayQuant Technologies, Inc. (service laboratory)
Method in brief: as §1

[7] = molecular target: T6, YES (Homo sapiens, UniProt P07947)
T6 construct: AssayQuant Technologies, Inc. (contract laboratory that ran the panel)
Method in brief: as §1

[8] = molecular target: T7, PRKCZ/PKCZ (Homo sapiens, UniProt Q05513)
T7 sequence (Q05513 1-592): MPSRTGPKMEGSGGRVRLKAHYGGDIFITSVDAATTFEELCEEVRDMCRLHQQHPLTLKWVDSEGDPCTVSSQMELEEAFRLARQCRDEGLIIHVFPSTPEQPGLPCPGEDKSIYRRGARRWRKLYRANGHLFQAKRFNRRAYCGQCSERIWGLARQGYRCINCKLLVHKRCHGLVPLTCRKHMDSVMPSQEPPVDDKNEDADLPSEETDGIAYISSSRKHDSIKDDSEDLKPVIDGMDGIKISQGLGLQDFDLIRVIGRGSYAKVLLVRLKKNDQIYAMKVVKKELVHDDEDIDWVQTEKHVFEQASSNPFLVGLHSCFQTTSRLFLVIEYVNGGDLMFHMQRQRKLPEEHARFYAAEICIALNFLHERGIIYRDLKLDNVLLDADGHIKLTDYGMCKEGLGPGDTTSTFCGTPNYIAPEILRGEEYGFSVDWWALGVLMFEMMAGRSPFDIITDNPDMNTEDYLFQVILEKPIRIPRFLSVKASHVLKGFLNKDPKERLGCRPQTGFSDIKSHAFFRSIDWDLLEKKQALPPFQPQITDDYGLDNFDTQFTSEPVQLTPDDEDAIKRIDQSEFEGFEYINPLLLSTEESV
Method in brief: as §1

[9] = molecular target: T8, SLK (Homo sapiens, UniProt Q9H2G2)
T8 construct: AssayQuant Technologies, Inc. (contract assay)
Method in brief: as §1

[10] = molecular target: AURKB/AURB (Homo sapiens, UniProt Q96GD4)
Method in brief: as §1

[11] = molecular target: T9, CAMK2D (Homo sapiens, UniProt Q13557)
T9 construct: AssayQuant Technologies, Inc. (ran the panel)
Method in brief: as §1

[12] = molecular target: T10, NEK4 (Homo sapiens, UniProt P51957)
T10 construct: AssayQuant Technologies, Inc. (assay service)
Method in brief: as §1

[13] = molecular target: T11, MARK2 (Homo sapiens, UniProt Q7KZI7)
T11 construct: AssayQuant Technologies, Inc. (assay service)
Method in brief: as §1

[14] = molecular target: T12, MELK (Homo sapiens, UniProt Q14680)
T12 construct: AssayQuant Technologies, Inc. (assay service)
Method in brief: as §1

[15] = molecular target: PRKACG (Homo sapiens, UniProt P22612)
Method in brief: as §1

Chain of AKT3 (Q9Y243 whole entry): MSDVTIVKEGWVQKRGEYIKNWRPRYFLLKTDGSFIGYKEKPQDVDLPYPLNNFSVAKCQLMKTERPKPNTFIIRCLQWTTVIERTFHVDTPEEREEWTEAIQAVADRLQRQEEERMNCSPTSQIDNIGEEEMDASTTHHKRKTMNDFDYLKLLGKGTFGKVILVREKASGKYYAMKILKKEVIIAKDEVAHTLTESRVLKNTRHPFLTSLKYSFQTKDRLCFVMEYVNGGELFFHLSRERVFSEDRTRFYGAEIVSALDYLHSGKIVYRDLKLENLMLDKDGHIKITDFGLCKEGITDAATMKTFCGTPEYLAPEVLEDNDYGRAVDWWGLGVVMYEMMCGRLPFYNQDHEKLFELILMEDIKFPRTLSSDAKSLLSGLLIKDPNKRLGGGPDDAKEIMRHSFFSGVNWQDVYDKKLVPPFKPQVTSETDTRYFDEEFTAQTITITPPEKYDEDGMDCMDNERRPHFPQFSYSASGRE
T12 sequence (Q14680 whole entry, species assumed): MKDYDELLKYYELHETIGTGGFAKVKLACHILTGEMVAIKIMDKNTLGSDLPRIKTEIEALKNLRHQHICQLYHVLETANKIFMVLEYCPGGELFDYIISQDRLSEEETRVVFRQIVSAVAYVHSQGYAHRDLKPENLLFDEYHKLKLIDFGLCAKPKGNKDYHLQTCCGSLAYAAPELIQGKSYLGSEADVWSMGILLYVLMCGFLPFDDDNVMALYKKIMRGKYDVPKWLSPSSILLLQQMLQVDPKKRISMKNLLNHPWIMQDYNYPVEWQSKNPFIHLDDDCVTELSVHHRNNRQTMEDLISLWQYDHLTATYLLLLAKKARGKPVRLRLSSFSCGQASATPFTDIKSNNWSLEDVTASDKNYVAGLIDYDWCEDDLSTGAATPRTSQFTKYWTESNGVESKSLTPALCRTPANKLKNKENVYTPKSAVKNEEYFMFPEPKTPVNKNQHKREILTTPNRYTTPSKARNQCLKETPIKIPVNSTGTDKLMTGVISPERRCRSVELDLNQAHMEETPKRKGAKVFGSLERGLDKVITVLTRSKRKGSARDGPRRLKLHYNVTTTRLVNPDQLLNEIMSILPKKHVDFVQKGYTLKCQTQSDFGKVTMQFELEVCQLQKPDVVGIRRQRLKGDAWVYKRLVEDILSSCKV
T10 sequence (P51957 whole entry, species assumed): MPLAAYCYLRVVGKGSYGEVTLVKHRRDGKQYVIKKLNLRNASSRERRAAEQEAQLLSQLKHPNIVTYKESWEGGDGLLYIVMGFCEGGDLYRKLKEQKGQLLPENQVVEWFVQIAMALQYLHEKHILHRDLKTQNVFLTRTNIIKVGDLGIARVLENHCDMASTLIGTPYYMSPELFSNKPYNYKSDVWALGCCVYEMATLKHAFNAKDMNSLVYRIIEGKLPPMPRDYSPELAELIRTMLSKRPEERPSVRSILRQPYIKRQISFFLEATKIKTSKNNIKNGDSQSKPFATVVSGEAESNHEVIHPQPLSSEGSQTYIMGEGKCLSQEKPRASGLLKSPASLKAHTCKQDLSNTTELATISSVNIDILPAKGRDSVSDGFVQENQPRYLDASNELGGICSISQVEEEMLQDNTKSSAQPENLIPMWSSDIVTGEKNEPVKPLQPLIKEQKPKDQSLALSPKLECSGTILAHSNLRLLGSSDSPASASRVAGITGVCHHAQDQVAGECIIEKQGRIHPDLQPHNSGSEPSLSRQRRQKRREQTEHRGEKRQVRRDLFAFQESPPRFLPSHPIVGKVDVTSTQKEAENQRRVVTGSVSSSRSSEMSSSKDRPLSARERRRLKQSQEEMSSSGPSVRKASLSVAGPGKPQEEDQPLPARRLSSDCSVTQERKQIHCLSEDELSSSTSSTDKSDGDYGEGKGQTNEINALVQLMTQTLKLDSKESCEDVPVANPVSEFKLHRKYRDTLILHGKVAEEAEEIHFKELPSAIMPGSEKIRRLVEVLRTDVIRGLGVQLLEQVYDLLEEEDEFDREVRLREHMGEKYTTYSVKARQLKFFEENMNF
T6 sequence (P07947 whole entry, species assumed): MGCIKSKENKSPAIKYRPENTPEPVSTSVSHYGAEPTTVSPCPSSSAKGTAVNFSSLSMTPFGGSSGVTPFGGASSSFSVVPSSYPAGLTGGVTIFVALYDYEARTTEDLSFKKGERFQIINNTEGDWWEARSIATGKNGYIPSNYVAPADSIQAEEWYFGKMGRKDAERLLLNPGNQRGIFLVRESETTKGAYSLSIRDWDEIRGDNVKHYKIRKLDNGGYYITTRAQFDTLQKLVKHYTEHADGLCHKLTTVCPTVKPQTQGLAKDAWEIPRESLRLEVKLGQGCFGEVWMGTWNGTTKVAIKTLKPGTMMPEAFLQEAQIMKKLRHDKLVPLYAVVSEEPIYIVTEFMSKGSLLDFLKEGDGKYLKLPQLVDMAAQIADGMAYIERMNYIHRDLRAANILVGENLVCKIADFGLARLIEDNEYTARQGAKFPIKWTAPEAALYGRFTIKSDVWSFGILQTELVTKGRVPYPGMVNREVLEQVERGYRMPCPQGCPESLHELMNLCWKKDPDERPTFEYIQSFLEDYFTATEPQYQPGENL
T4 sequence (O96017 whole entry): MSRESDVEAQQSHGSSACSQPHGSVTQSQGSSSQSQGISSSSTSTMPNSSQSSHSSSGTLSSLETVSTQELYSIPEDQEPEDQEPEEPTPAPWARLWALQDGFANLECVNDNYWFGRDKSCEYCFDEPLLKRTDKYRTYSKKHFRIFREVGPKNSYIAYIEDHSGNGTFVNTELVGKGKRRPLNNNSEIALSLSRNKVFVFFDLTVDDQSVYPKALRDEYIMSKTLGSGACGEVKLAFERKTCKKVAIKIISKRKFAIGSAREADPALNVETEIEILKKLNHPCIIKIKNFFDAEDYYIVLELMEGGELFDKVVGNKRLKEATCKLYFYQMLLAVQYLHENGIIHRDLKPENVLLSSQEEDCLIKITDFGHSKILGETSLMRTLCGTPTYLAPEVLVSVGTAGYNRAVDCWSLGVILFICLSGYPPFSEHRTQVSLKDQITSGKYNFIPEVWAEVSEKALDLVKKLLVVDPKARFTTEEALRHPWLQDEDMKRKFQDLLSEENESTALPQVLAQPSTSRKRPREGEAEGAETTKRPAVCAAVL
T11 sequence (Q7KZI7 whole entry, species assumed): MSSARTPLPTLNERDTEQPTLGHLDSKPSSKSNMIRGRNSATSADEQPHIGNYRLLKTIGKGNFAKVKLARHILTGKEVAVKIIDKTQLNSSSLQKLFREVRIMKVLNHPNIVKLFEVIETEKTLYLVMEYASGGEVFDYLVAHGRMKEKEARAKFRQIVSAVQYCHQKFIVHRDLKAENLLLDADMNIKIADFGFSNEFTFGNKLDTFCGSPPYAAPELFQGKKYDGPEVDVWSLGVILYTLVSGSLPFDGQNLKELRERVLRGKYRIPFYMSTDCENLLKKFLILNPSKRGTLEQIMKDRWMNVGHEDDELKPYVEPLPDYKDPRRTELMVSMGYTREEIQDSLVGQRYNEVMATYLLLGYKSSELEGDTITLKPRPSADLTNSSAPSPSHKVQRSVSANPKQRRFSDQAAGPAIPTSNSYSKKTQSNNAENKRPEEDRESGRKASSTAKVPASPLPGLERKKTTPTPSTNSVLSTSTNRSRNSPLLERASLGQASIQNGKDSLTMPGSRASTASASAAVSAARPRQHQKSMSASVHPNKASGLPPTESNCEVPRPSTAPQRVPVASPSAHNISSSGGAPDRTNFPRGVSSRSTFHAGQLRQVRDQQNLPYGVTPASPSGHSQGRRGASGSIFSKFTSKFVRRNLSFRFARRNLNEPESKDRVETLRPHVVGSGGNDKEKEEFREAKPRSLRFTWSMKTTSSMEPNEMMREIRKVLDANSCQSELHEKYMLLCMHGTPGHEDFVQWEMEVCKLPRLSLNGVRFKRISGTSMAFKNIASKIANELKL
T9 sequence (Q13557 whole entry, species assumed): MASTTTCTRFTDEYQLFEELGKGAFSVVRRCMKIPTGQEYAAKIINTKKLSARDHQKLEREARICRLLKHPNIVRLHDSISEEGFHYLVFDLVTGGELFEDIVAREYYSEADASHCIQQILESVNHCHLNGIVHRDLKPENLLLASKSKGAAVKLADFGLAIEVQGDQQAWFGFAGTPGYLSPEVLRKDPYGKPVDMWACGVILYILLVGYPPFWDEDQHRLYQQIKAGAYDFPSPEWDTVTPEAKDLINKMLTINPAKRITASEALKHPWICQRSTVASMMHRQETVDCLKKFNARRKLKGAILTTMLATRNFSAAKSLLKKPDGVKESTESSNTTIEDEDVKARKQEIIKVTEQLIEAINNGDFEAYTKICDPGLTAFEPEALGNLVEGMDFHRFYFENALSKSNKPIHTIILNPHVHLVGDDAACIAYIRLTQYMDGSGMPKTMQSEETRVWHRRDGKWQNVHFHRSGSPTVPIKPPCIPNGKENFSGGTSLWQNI
Chain of AURKB/AURB (Q96GD4 whole entry): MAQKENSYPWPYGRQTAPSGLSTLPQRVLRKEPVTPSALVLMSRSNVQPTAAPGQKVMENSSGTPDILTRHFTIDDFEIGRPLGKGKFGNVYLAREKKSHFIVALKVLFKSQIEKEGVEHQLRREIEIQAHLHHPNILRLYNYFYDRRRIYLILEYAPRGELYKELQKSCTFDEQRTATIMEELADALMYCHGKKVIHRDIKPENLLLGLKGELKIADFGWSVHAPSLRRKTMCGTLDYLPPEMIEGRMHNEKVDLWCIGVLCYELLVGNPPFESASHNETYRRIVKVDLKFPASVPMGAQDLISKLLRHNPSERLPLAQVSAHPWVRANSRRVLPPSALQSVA

Row | SMILES | inhibition at 1 µM [1] | inhibition at 1 µM [2] | inhibition at 1 µM [3] | inhibition at 1 µM [4] | inhibition at 1 µM [5] | inhibition at 1 µM [6] | inhibition at 1 µM [7] | inhibition at 1 µM [8] | inhibition at 1 µM [9] | inhibition at 1 µM [10] | inhibition at 1 µM [11] | inhibition at 1 µM [12] | inhibition at 1 µM [13] | inhibition at 1 µM [14] | inhibition at 1 µM [15]
1 | C=CC(=O)N1CCCC(c2c(F)cc(C(N)=O)c3[nH]c4c(c23)CCCCC4)C1 (single isomer, unassigned) [Compound 5-6] | -14.4% | -2.4% | -13.2% | 0.7% | 0.6% | -26.4% | 8.8% | -4% | -3.7% | -19% | 1.1% | -5.3% | 11.8% | -27.6% | 4.2%
2 | C=CC(=O)N1CCC[C@@H](c2c(F)cc(C(N)=O)c3[nH]c4c(c23)CC2(CC4)CC2)C1 [Compound 6-2, (S)-5-(1-acryloylpiperidin-3-yl)-6-fluoro-1,2,4,9-tetrahydrospiro[carbazole-3,1′-cyclopropane]-8-carboxamide] | -16.3% | -0.6% | -37.5% | 10.1% | -14.1% | -10.4% | 27% | 8.5% | 8.9% | -11.5% | 8.4% | -6.5% | -33.3% | -14.5% | -27.2%
3 | C=CC(=O)N1CCC[C@@H](c2c(F)cc(C(N)=O)c3[nH]c4c(c23)CCC4)C1 [Compound 10-2, (S)-8-(1-acryloylpiperidin-3-yl)-7-fluoro-1,2,3,4-tetrahydrocyclo-penta[b]indole-5-carboxamide] | -19.4% | -2.5% | 2.9% | 1.6% | -9.2% | -11.1% | 23.9% | -4.2% | -48.3% | -14.9% | -10.7% | -11.1% | -8.8% | 11.1% | -19.2%
